Data on 15 compounds can be found in US20150299125A1, “PRODRUG BIPYRIDYLAMINOPYRIDINES AS SYK INHIBITORS” (MERCK SHARP & DOHME CORP., priority 2012, published 2015).

Values after ≈ are worked out from the molar mass of the structure shown.

A short description of series [1]: Conversion of prodrug to parent in in vitro biorelevant gastrointestinal tract media. Conditions: 37° C.; for Conversion in SGF, time: simulated gastric fluid. Format: in vitro ADME. The method, then:
Conversion of Prodrug to Parent in In Vitro Biorelevant Gastrointestinal Tract Media: The likely stability of prodrugs in the gastrointestinal tract can be estimated by incubating a prodrug in simulated gastric and intestinal fluids; compounds were measured for stability in simulated gastric fluid (SGF), fasted state simulated intestinal fluid (FaSSIF), and fasted state simulated intestinal fluid plus pancreatin (FaSSIF+pancreatin). Prodrug stock solutions were made by diluting 2 mg of compound in 200 μL DMSO. A 10 mg/mL Pancreatin in FaSSIF stock solution was made by dissolving 10 mg Pancreatin in 1 mL FaSSIF. Samples were prepared by diluting 10 μL of compound stock solution into 990 μL of biorelevant media (990 μL SGF, 990 μL FaSSIF, or 940 μL FaSSIF plus 50 μL Pancreatin stock) in a 2 mL HPLC vial and vortexing the mixture for a few seconds. The samples were incubated at 37° C. and aliquots were removed for up to 24 hours and injected directly on an HPLC to determine the conversion of prodrug to active drug. In the case of compound precipitation upon sample preparation, an individual sample was prepared for each desired time point and the entire sample was diluted with a known volume of acetonitrile/water (50/50) to ensure compound dissolution before HPLC analysis.

A short description of series [2]: Solubility in biorelevant fasted state simulated intestinal fluid (FaSSIF). In kind it is physicochemical. Conditions: 25 °C, fassif, kinetic from dmso stock, Solubility. How it is done: Solubility in Biorelevant Fasted State Simulated Intestinal Fluid (FaSSIF):
A 10 mM DMSO stock solution of compound to be tested is used. A 100 μM standard solution is generated by diluting 2.5 μL of the 10 mM stock solution with 247.5 μL of diluent (10% DMSO/10% MeCN/80% MeOH, v/v/v). A solubility solution is generated by diluting 5 μL of the 10 mM stock solution with 245 μL of FaSSIF (maximum solubility approximately 200 μM). […] The equilibrated solubility solution is filtered by centrifugation (3 minutes at 4000 rpm) using a 0.45 µm filter with a polypropylene membrane. The standard solution and the filtered equilibrated solubility solution are analyzed by HPLC/DAD. The solubility value is calculated by the following equation:
Solubility=(Peak area of sample/Peak area of standard)(Standard concentration)

The target in series [3] is T1, recombinant human GST-Syk (Homo sapiens, UniProt P43405).
T1 construct: purchased Carna Biosciences 08-176
The series can be described thus: Homogeneous Time-Resolved Fluorescence (HTRF) assay for the recombinant human Syk enzyme. Format: biochemical. Conditions: recombinant human GST-Syk 5 pM, ATP 25 μM, read-out: IC50. Put shortly:
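Recombinant GST-hSyk phosphorylates a biotinylated peptide for 45 min at room temperature. Quenched with EDTA buffer containing 2 nM Eu-anti-phosphotyrosine antibody and 70 nM SA-APC; HTRF read after 30 min.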
A general note: TR-FRET usually uses a lanthanide donor and a delayed reading to cut background.

As a reminder, the solubility is the concentration that dissolves in the medium under given conditions. As a reminder, the IC50 is the concentration that gives 50% inhibition. As for `Cc1cc(Nc2cc(C(F)F)ccn2)nc(-c2ccc([C@](C)(O)[C@H]3CC[C@H](C(=O)OCOC(=O)C4CCNCC4)CC3)nc2)c1` [Example 3-1], in series [1] (3 h), the “Conversion in FaSSIF + Pancreatin, time” value was 100%, 3 h and the “Conversion in FaSSIF, time” value is reported as 100%, 3 h. The “Conversion in SGF, time” value in series [1] (5 h) is 0%, 5 h. In addition, in series [2], the solubility was 147 µM (≈ 91.7 µg/mL). In addition, the IC50 in series [3] is 27 nM.

Consider `Cc1cc(Nc2cc(C(F)F)ccn2)nc(-c2ccc([C@](C)(O)[C@H]3CC[C@H](C(=O)O[C@H]4CC[C@H](N)CC4)CC3)nc2)c1` [Example 1-23, trans-4-aminocyclohexyl trans-4-[(1R)-1-(6-{[4-(difluoromethyl)pyridin-2-yl]amino}-4-methyl-2,3′-bipyridin-6′-yl)-1-hydroxyethyl] cyclohexanecarboxylate], for which, in series [1] (3 h), the “Conversion in FaSSIF + Pancreatin, time” value is listed as 100%, 3 h. Further, in series [1] (5 h), the “Conversion in FaSSIF, time” value is listed as 0%, 5 h and the “Conversion in SGF, time” value is recorded as 0%, 5 h. Further, the solubility in series [2] is 131 µM (≈ 75.9 µg/mL). Further, in series [3], the 50% inhibitory concentration (IC50) was found to be 1.6 nM.

As to `Cc1cc(Nc2cc(C(F)F)ccn2)nc(-c2ccc([C@](C)(O)[C@H]3CC[C@H](C(=O)OCOC(=O)OCCOCCOCCOCCO)CC3)nc2)c1` [Example 2-4, 15-hydroxy-3-oxo-2,4,7,10,13-pentaoxapentadec-1-yl trans-4-[(1R)-1-(6-{[4-(difluoromethyl)pyridin-2-yl]amino}-4-methyl-2,3′-bipyridin-6′-yl)-1-hydroxyethyl]cyclo hexanecarboxylate], the “Conversion in FaSSIF + Pancreatin, time” value in series [1] (3 h) is 100%, 3 h. Besides, the “Conversion in FaSSIF, time” value in series [1] (24 h) is reported as 5%, 24 h. Further, the “Conversion in SGF, time” value in series [1] (5 h) is listed as 0%, 5 h. The IC50 in series [3] was 5.3 nM.

Take `Cc1cc(Nc2cc(C(F)F)ccn2)nc(-c2ccc([C@](C)(O)[C@H]3CC[C@H](C(=O)Oc4ccc(C#N)cc4)CC3)nc2)c1` [Example 1-29, 4-cyanophenyl trans-4-[(1R)-1-(6-{[4-(difluoromethyl)pyridin-2-yl]amino}-4-methyl-2,3′-bipyridin-6′-yl)-1-hydroxyethyl] cyclohexanecarboxylate]: in series [1] (24 h), the “Conversion in FaSSIF + Pancreatin, time” value is reported as 44%, 24 h. In series [1] (5 h), the “Conversion in FaSSIF, time” value is 0%, 5 h and the “Conversion in SGF, time” value is reported as 0%, 5 h. For the same compound, the IC50 in series [3] was 7.3 nM.

Turning to `CCOCCOC(=O)OCOC(=O)[C@H]1CC[C@H]([C@@](C)(O)c2ccc(-c3cc(C)cc(Nc4cc(C(F)F)ccn4)n3)cn2)CC1` [Example 2-6, {[(2-ethoxyethoxy)carbonyl]oxy}methyl trans-4-[(1R)-1-(6-{[4-(difluoromethyl)pyridin-2-yl]amino}-4-methyl-2,3′-bipyridin-6′-yl)-1-hydroxyethyl]cyclo hexanecarboxylate], the “Conversion in FaSSIF + Pancreatin, time” value in series [1] (3 h) was 95%, 3 h. In series [1] (5 h), the “Conversion in FaSSIF, time” value is recorded as 0%, 5 h and the “Conversion in SGF, time” value is listed as 0%, 5 h. The IC50 in series [3] was less than 0.5 nM.

As to `Cc1cc(Nc2cc(C(F)F)ccn2)nc(-c2ccc([C@](C)(O)[C@H]3CC[C@H](C(=O)OCOC(=O)OCC4CCOCC4)CC3)nc2)c1` [Example 2-9, {[(tetrahydro-2H-pyran-4-ylmethoxy)carbonyl]oxy}methyl trans-4-[(1R)-1-(6-{[4-(difluoromethyl)pyridin-2-yl]amino}-4-methyl-2,3′-bipyridin-6′-yl)-1-hydroxyethyl]cyclo hexanecarboxylate], in series [1] (3 h), the “Conversion in FaSSIF + Pancreatin, time” value was 65%, 3 h and the “Conversion in SGF, time” value was 2%, 3 h. Besides, the “Conversion in FaSSIF, time” value in series [1] (5 h) is listed as 0%, 5 h. For the same compound, in series [3], the concentration for half-maximal inhibition (IC50) was 27.2 nM.

As to `Cc1cc(Nc2cc(C(F)F)ccn2)nc(-c2ccc([C@](C)(O)[C@H]3CC[C@H](C(=O)OCOP(=O)(O)O)CC3)nc2)c1` [Example 10-1, (Phosphonooxy)methyl trans-4-[(1R)-1-(6-{[4-(difluoromethyl)pyridin-2-yl]amino}-4-methyl-2,3′-bipyridin-6′-yl)-1-hydroxyethyl]cyclohexanecarboxylate], in series [1] (5 h), the “Conversion in FaSSIF + Pancreatin, time” value is reported as 50%, 5 h; the “Conversion in FaSSIF, time” value was 20%, 5 h; the “Conversion in SGF, time” value is on record as 5%, 5 h. For the same compound, the IC50 in series [3] was less than 0.5 nM.

Consider `Cc1cc(Nc2cc(C(F)F)ccn2)nc(-c2ccc([C@](C)(O)[C@H]3CC[C@H](C(=O)OCOC(=O)[C@@H](O)Cc4ccc(O)cc4)CC3)nc2)c1` [Example 3-6, {[(2S)-2-hydroxy-3-(4-hydroxyphenyl)propanoyl]oxy}methyl trans-4-[(1R)-1-(6-{[4-(difluoromethyl)pyridin-2-yl]amino}-4-methyl-2,3′-bipyridin-6′-yl)-1-hydroxyethyl]cyclohexane carboxylate], for which, in series [2], the concentration in solution (solubility) came to 89 µM (≈ 60.2 µg/mL). In series [3], the IC50 worked out at 4.1 nM.

In turn, `Cc1cc(Nc2cc(C(F)F)ccn2)nc(-c2ccc([C@](C)(O)[C@H]3CC[C@H](C(=O)OCOC(=O)O[C@H]4CC[C@H](N)CC4)CC3)nc2)c1` [Example 2-11, ({[(trans-4-aminocyclohexyl)oxy]carbonyl}oxy) methyl trans-4-[(1R)-1-(6-{[4-(difluoromethyl)pyridin-2-yl]amino}-4-methyl-2,3′-bipyridin-6′-yl)-1-hydroxyethyl]cyclo hexanecarboxylate] returned a solubility in series [2] of 149 µM (≈ 97.4 µg/mL). In addition, the IC50 in series [3] stood at 5.2 nM.

`Cc1cc(Nc2cc(C(F)F)ccn2)nc(-c2ccc([C@](C)(O)[C@H]3CC[C@H](C(=O)OC[N+]4(C)CCC(CO)CC4)CC3)nc2)c1` (stereo partly drawn) [Example 5-29, 1-{[({trans-4-[(1R)-1-(6-{[4-(difluoromethyl)pyridin-2-yl]amino}-4-methyl-2,3′-bipyridin-6′-yl)-1-hydroxyethyl]cyclohexyl}carbonyl)oxy]methyl}-4-(hydroxymethyl)-1-methylpiperidinium] came in with a solubility in series [2] of 176 µM. The IC50 in series [3] was less than 0.5 nM.

Compound `Cc1cc(Nc2cc(C(F)F)ccn2)nc(-c2ccc([C@](C)(O)[C@H]3CC[C@H](C(=O)OC[N+](C)(C)C4CCCCC4)CC3)nc2)c1` [Example 5-11, N-{[({trans-4-[(1R)-1-(6-{[4-(difluoromethyl)pyridin-2-yl]amino}-4-methyl-2,3′-bipyridin-6′-yl)-1-hydroxyethyl]cyclohexyl}carbonyl)oxy]methyl}-N,N-dimethylcyclohexanaminium] displayed a solubility in series [2] of 200 µM. Besides, the IC50 in series [3] stood at 0.9 nM.

`Cc1cc(Nc2cc(C(F)F)ccn2)nc(-c2ccc([C@](C)(O)[C@H]3CC[C@H](C(=O)OC4CCNCC4)CC3)nc2)c1` [Example 1-17, piperidin-4-yl trans-4-[(1R)-1-(6-{[4-(difluoromethyl)pyridin-2-yl]amino}-4-methyl-2,3′-bipyridin-6′-yl)-1-hydroxyethyl] cyclohexanecarboxylate] displayed a solubility in series [2] of 136 µM (≈ 76.9 µg/mL). Also, in series [3], the IC50 worked out at 4.1 nM.

In series [2], `Cc1cc(Nc2cc(C(F)F)ccn2)nc(-c2ccc([C@](C)(O)[C@H]3CC[C@H](C(=O)O[C@H]4CC[C@H](N(C)C)CC4)CC3)nc2)c1` [Example 9-1, Trans-4-(Dimethylamino)cyclohexyl trans-4-[(1R)-1-(6-{[4-(difluoromethyl)pyridin-2-yl]amino}-4-methyl-2,3′-bipyridin-6′-yl)-1-hydroxyethyl]cyclohexanecarboxylate] had a solubility of 162 µM (≈ 98.5 µg/mL). In series [3], the IC50 was found to be 3.2 nM.

As to `Cc1cc(Nc2cc(C(F)F)ccn2)nc(-c2ccc([C@](C)(O)[C@H]3CC[C@H](C(=O)OC[N+]4(C)CCC(O)CC4)CC3)nc2)c1` (stereo partly drawn) [Example 5-27, 1-{[({trans-4-[(1R)-1-(6-{[4-(difluoromethyl)pyridin-2-yl]amino}-4-methyl-2,3′-bipyridin-6′-yl)-1-hydroxyethyl]cyclohexyl}carbonyl)oxy]methyl}-4-hydroxy-1-methylpiperidinium], in series [2], the solubility is 164 µM. For the same compound, in series [3], the IC50 is 1.5 nM.

`CCCC[N+](CC)(CC)COC(=O)[C@H]1CC[C@H]([C@@](C)(O)c2ccc(-c3cc(C)cc(Nc4cc(C(F)F)ccn4)n3)cn2)CC1` [Example 5-6, N-{[({trans-4-[(1R)-1-(6-{[4-(difluoromethyl)pyridin-2-yl]amino}-4-methyl-2,3′-bipyridin-6′-yl)-1-hydroxyethyl]cyclohexyl}carbonyl)oxy]methyl}-N,N-diethylbutan-1-aminium] gave a solubility in series [2] of 152 µM. Also, the IC50 in series [3] was found to be 1.1 nM.
